Broadly, the melting point is the temperature of the solid-liquid transition.

The values below come from patent US6869955B2, “Tetrahydropteridines and pyridylpiperazines for treatment of neurological disorders” (Bristol-Myers Squibb Pharma Company, priority 1996, dated 2005).

In the case of `CCCCN(CC)c1nc(C)nc2c1NC(=O)CN2c1ccc(C(C)C)cc1Br` [Example 1, 8-(2-bromo-4-isopropylphenyl)-4-(ethylbutylamino)-2-methyl-5,6,7,8-tetrahydropteridin-6-one], the melting point lay within 146 to 147 °C.

`Cc1nc(-c2ccccc2C(F)(F)F)c2c(n1)N(c1ccc(C(C)C)cc1Br)CC(=O)N2` [Example 17, 8-(2-bromo-4-isopropylphenyl)-2-methyl-4-(2-trifluoromethylphenyl)-5,6,7,8-tetrahydropteridin-6-one] registered a melting point of 238 to 239 °C.

In turn, `CCCCN(CC)c1nc(C)nc2c1NC(=S)CN2c1ccc(C(C)C)cc1Br` [Example 131, 8-(2-bromo-4-isopropylphenyl)-4-(ethylbutylamino)-2-methyl-5,6,7,8-tetrahydropteridin-6-thione] showed a melting point of 148 to 149 °C.

`CCCCN1C(=O)CN2C(=O)CN(c3ccc(C(C)C)cc3Br)c3nc(C)nc1c32` [Example 501, 10-[2-bromo-4-(1-methylethyl)-phenyl]-4-butyl-9,10-dihydro-2-methyl-4H,8H-pyrazino[3,2,1-de]pteridine-5,8(6H)-dione]: the melting point is 207 to 208 °C.
